Measurements as given in PubChem BioAssay (NCI).
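Cells were grown in 96-well plates and exposed to each compound for 48 hours at five concentrations; endpoints were interpolated linearly between bracketing concentrations, or set to the highest concentration if not reached. TGI denotes the concentration required for complete inhibition of growth.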

Assays:
Assay in all cases: NCI anticancer screen, dose series, 48 h
MDA-N = tested on: MDA-N
DLD-1 colon = tested on: DLD-1 colon
HOP-18 NSCLC = tested on: HOP-18 NSCLC
LXFL 529 NSCLC = tested on: LXFL 529 NSCLC
M19-MEL melanoma = tested on: M19-MEL melanoma
XF 498 CNS = tested on: XF 498 CNS
RXF-631 renal = tested on: RXF-631 renal

## CCN(CC)CCOc1ccccc1/C=C/c1noc2ccccc12
MDA-N
  TGI: 24.1 µM

## O=C1CCC2CC(C(=O)c3ccccc3)CCC2CN1 (stereo not drawn) (tested in a mixture with another compound)
DLD-1 colon
  TGI: > 100 µM
HOP-18 NSCLC
  TGI: > 100 µM
LXFL 529 NSCLC
  TGI: > 100 µM
M19-MEL melanoma
  TGI: > 100 µM

## Cc1cccc2c1N(C(=O)/C=C\C(=O)O)C(c1c(C)[nH]c3ccccc13)C2 (stereo not drawn)
DLD-1 colon
  TGI: > 100 µM
LXFL 529 NSCLC
  TGI: 28.6 µM
M19-MEL melanoma
  TGI: 53.1 µM
XF 498 CNS
  TGI: 40.6 µM

## Cc1cc2c(cc1C)[n+](=O)c(C(=O)C/C(=N/OCCCc1ccccc1)C(=O)Nc1cc(Cl)ccc1Cl)c(C)n2[O-]
DLD-1 colon
  TGI: > 100 µM
HOP-18 NSCLC
  TGI: > 100 µM
LXFL 529 NSCLC
  TGI: > 100 µM
M19-MEL melanoma
  TGI: > 100 µM
RXF-631 renal
  TGI: > 100 µM
XF 498 CNS
  TGI: > 100 µM

## CNC(=O)OCc1c2ccncc2c(C)c2c1[nH]c1ccccc12
MDA-N
  TGI: 1.73 µM

## COC(=O)C(C(=O)C(=O)Nc1nc(=S)[nH][nH]1)c1csc(-n2nc(-c3ccccc3)cc2-c2ccccc2)n1 (stereo not drawn)
DLD-1 colon
  TGI: > 100 µM
LXFL 529 NSCLC
  TGI: > 100 µM
M19-MEL melanoma
  TGI: > 100 µM

## CC(=O)Nc1cc(N(CCOS(C)(=O)=O)CCOS(C)(=O)=O)ccc1N=O
DLD-1 colon
  TGI: > 100 µM
LXFL 529 NSCLC
  TGI: > 100 µM
M19-MEL melanoma
  TGI: > 100 µM
XF 498 CNS
  TGI: > 100 µM

## O=C(O)C[C@H]1CCCCC12CCOC2=O (stereo partly drawn)
DLD-1 colon
  TGI: > 100 µM
HOP-18 NSCLC
  TGI: > 100 µM
LXFL 529 NSCLC
  TGI: > 100 µM
M19-MEL melanoma
  TGI: > 100 µM
RXF-631 renal
  TGI: > 100 µM
XF 498 CNS
  TGI: > 100 µM

## C=CC(C1=CC(=O)C(OC)=CC1=O)c1ccccc1 (stereo not drawn)
MDA-N
  TGI: 31.6 µM

## Cc1ccc(NC(=O)C(=O)C(C#N)c2nc(-c3ccc(-c4ccccc4)cc3)cs2)c(C)c1 (stereo not drawn)
DLD-1 colon
  TGI: > 100 µM
HOP-18 NSCLC
  TGI: > 100 µM
LXFL 529 NSCLC
  TGI: > 100 µM
M19-MEL melanoma
  TGI: > 100 µM

## O=C(c1ccccc1)[C@H]1Nc2ccc(Cl)cc2C2c3ccccc3CC21 (stereo partly drawn)
DLD-1 colon
  TGI: > 100 µM
LXFL 529 NSCLC
  TGI: > 100 µM
M19-MEL melanoma
  TGI: > 100 µM
RXF-631 renal
  TGI: > 100 µM
XF 498 CNS
  TGI: 72.5 µM

## N#Cc1ccccc1NC(=O)C(=O)c1c(O)c2ccccc2oc1=O
MDA-N
  TGI: > 100 µM

## O=C(c1ccccc1)N1C2CCC1C(C(F)(F)F)=C2C(F)(F)F
DLD-1 colon
  TGI: > 100 µM
HOP-18 NSCLC
  TGI: > 100 µM
LXFL 529 NSCLC
  TGI: > 100 µM
M19-MEL melanoma
  TGI: > 100 µM
RXF-631 renal
  TGI: > 100 µM

## CNCc1cc(OC)ccc1-c1ccc(OC)c(OC)c1OC
DLD-1 colon
  TGI: > 100 µM
HOP-18 NSCLC
  TGI: > 100 µM
LXFL 529 NSCLC
  TGI: > 100 µM
M19-MEL melanoma
  TGI: > 100 µM
RXF-631 renal
  TGI: > 100 µM
XF 498 CNS
  TGI: > 100 µM

## COC(=O)C(CC(C)C)NC(=O)NC12CC3CC(CC(F)(C3)C1)C2 (stereo not drawn)
DLD-1 colon
  TGI: > 100 µM
LXFL 529 NSCLC
  TGI: > 100 µM
M19-MEL melanoma
  TGI: > 100 µM
RXF-631 renal
  TGI: > 100 µM

## CC(/C(=N\Nc1ccccc1)c1ccc(O)cc1)C1C(=O)Oc2ccccc21 (stereo not drawn)
DLD-1 colon
  TGI: > 100 µM
LXFL 529 NSCLC
  TGI: > 100 µM
M19-MEL melanoma
  TGI: > 100 µM

## C[C@]12CC[C@H](O)C[C@H]1CC[C@@H]1[C@@H]2CC[C@]2(C)[C@@H](C3=CC(=O)OC3)[C@@H](O)C[C@]12O
MDA-N
  TGI: 5.7 µM

## COC(=O)/C(=N\Nc1nc(=S)[nH]n1N)C(C#N)c1ccccc1 (stereo not drawn)
DLD-1 colon
  TGI: > 100 µM
HOP-18 NSCLC
  TGI: > 100 µM
LXFL 529 NSCLC
  TGI: > 100 µM
M19-MEL melanoma
  TGI: > 100 µM

## COC(=O)C(Cc1cc(OC)c(OC)c(OC)c1)c1ccc(OC)cc1 (stereo not drawn)
DLD-1 colon
  TGI: > 100 µM
HOP-18 NSCLC
  TGI: > 100 µM
LXFL 529 NSCLC
  TGI: > 100 µM
M19-MEL melanoma
  TGI: > 100 µM
RXF-631 renal
  TGI: > 100 µM
